Series [1] is described as follows: Formation of adducts with MGO, kinetic study by HPLC. It is filed as physicochemical. Particulars: compound 10 mM, MGO 20 mM, 37° C.; for disappearance of the free scavenger to the benefit of adducts with the MGO: after 15 min of incubation. Here is the method: The compounds to be tested are incubated at 37° C. in the presence of MGO or of MDA. A kinetic study aiming to report on the formation of adducts with the MGO or MDA is then carried out via HPLC analysis.
The compounds to be tested (30 μmol) are dissolved in PBS (1.5 mL). An aqueous solution (qsp 1.25 mL) of MGO at 40% in water (250 μmol) is then prepared and in parallel, MDA bis-(diOEt)-acetal (250 μmol) is set to react with a solution of HCl 1N (2 eq) in water (qsp 1.25 mL) for 1 h at room temperature. An aqueous solution of NaOH 0.05N is also required to neutralise the reaction medium (5 mL).
The solution of the compound to be tested (625 μL—final concentration in the medium=10 mM) is then set to react with the solution of MGO or of MDA prepared extemporaneously (125 μL—final concentration in the medium=20 mM) in the presence of NaOH 0.05 N (0.5 mL).
The various mixtures are then incubated in the oven at 37° C. for 24 h.
A sampling of each mixture (100 μL) is taken at regular intervals of time (0.25; 0.5; 1; 5 and 24 h) and stored at −20° C. in order to stop the reaction. After dilution in a MeCN/H2O 98:2 mixture at room temperature, the HPLC analysis is carried out on a Shimadzu LCMS-2020 apparatus (UV chromatogram at 190 nm and mass spectrum in positive electrospray ionisation mode (ESI+)) after separation on the Waters Acquity column using a gradient of solvents H2O+HCOOH 0.1%/MeCN+HCOOH 0.1% (98/2 for 2 min, then 55/45 for 2 min and 45/55 for 3 min) with a flow rate of 0.3 mL/min at 40° C. and an injection of volume of 1 (“detection mode: scan, interface voltage: tuning file, DL voltage: 100 V, Q-array DC: 40 V, Q-array RF: 40 V”). A blank is first of all carried out using a solution containing the reaction medium without scavenger. Then, a free scavenger solution at 10 mM is used as a negative control and the carnosine as a reference of the literature. The proportion of adducts formed with the MGO or MDA (generally, tR=4.1 to 6.8 min) is then measured in relation to the quantity of remaining free scavenger (generally, tR=0.8 to 4.6 min) after measurement of the area under the curve of the corresponding peaks on the UV spectrum (measurements taken for a representative sample).

The subject of series [2] is rat pheochromocytoma cells, treated as neuronal cells (PC12). In words: Cytotoxicity, cellular viability (CCK-8/WST-8) on PC12. It is filed as cell-based. As to conditions: rat. The procedure:
The cellular viability is evaluated by a colorimetric method based on the detection of the conversion of a salt of the tetrazolium (WST-8) by the metabolically active cells (CCK-8 kit, Sigma, Lyons, France) (Molecules, 2014, 19(8), 12048-12064; J. Pharmacol. Toxicol. Methods., 2007, 56(1), 58-62). Living cells have mitochondrial dehydrogenases that reduce the WST-8 (2-(2-methoxy-4-nitrophenyl)-3-(4-nitrophenyl)-5-(2,4-disulfophenyl)-2H-tetrazolium), monosodium salt) to formazan of an orange colour, which dissolves directly in the culture medium in the presence of 1-Methoxy PMS (1-methoxy-5-methylphenazinium methyl sulphate). After an incubation for 1 h at 37° C., the absorbance of the formazan is measured at 450 nm. The absorbance is directly proportional to the number of living cells.
Briefly, the cells are inoculated in 96-well plates at a rate of 5.10^3 cells per well in 100 μL of the suitable medium until subconfluence. The cells are then washed with D-PBS, then treated with various concentrations (10 μM, 100 μM) of the products to be tested in triplicates for 24 and 48 h. A positive control is carried out with 10% of DMSO. The CCK-8 (10 μL) solution is then added to each well for an incubation for 1 h at 37° C. The measurement of the absorbance is taken at 450 nm using a Perkin Elmer 2103 Envision® microplate reader.
The viability of the cells is expressed as a % of the control (untreated cells) by the mean±standard deviation of triplicates forming a representative experiment or of three independent experiments conducted in triplicate.

Series [3] in a line: Cu2+ chelating properties by UV/Visible light spectrophotometry (murexide). The class given is physicochemical. Particulars: 0.02-2 mM compound, CuSO4 0.25 mM solution, Hexamine buffer pH 5, RT 10 min. Here is the method: J. Mol. Sci., 2009, 10, 5485-5497; Molecules, 2012, 17, 13457-13472). […] A Hexamine buffer 0.01 M/KCl 0.01 M (qsp 200 mL) of which the pH is adjusted to 5 using a solution of HCl 1N is first of all prepared. Solutions of CuSO4.5H2O at 0.5 mM (20 mL) and 0.25 mM (100 mL) are then carried out in this buffer, with the first being used to obtain the calibration curve. An aqueous solution of murexide at 1 mM must also be prepared extemporaneously (10 mL) as well as a stock solution of the compounds to be tested at 4.2 mM in Hexamine buffer 0.01 M/KCl 0.01 M or in a buffer and MeOH 75/25 mixture (6.2 mL). Various concentrations of the compounds to be tested are distributed in Hexamine buffer 0.01M/KCl 0.01M (pH=5) (Table 5) or in a buffer and MeOH 75/25 mixture in tubes for hemolysis (Table 6). The solution of CuSO4.5H2O at 0.25 mM (1 mL) is then added and this is allowed to incubate at RT for 10 min. Finally, the aqueous solution of murexide at 1 mM (0.1 mL) is introduced and is again allowed to incubate at RT for 1 min. The absorbances are then measured at 485 nm ([…]) and 520 nm ([…]) by UV/Visible light spectrophotometry (V-650 JASCO spectrometer) (measurements taken in triplicates). […] After introduction of the aqueous solution of murexide at 1 mM (0.1 mL), this is allowed to incubate at RT for 1 min and the absorbances are finally measured at 485 nm ([…]) and 520 nm ([…]) by UV/Visible light spectrophotometry.

Structures are written as SMILES.

As for `NCC(N)CCCNC(=O)CCn1cccc(O)c1=O` (stereo not drawn) [Compound 37a, N-(4,5-diaminopentyl)-3-(3-hydroxy-2-oxopyridin-1(2H)-yl)propanamide], the “disappearance of the free scavenger to the benefit of adducts with the MGO” value (shortened to “disappearance of the free scavenger”) in series [1] is given as “almost total disappearance of the free scavenger”. In addition, the “viability of the cells as a percentage of the untreated cells” value is listed as 93% in series [2] (24 h, 10 μM); 112% in series [2] (24 h, 100 μM); 96% in series [2] (48 h, 10 μM); 99% in series [2] (48 h, 100 μM).

Turning to `COc1cc(/C=C/C(=O)N2CCN(C(=O)CCC(N)CN)CC2)ccc1O` (stereo not drawn) [Compound 29a, (E)-4,5-diamino-1-(4-(3-(4-hydroxy-3-methoxyphenyl)acryloyl)piperazin-1-yl)pentan-1-one], the “adducts with the MGO with regards to the free scavenger” value in series [1] (after 5 h of reaction, no HPLC separation, trend) is “majority presence of AdB”. Also, the “Cu^2+ chelating properties (complexation of the Cu^2+)” value (shortened to “Cu^2+ chelating properties”) in series [3] is recorded as “poor results”. The “viability of the cells as a percentage of the untreated cells” value in series [2] (24 h, 10 μM) came out at 100%; in series [2] (24 h, 100 μM), 120%; in series [2] (48 h, 10 μM) it was 94%; in series [2] (48 h, 100 μM), 87%.

`NCC(N)CCC(=O)NCCCn1cccc(O)c1=O` (stereo not drawn) [Compound 37c, 4,5-diamino-N-(3-(3-hydroxy-2-oxopyridin-1(2H)-yl)propyl)pentanamide]: the “disappearance of the free scavenger” value in series [1] is on record as “almost total disappearance of the free scavenger”. In addition, the “viability of the cells as a percentage of the untreated cells” value in series [2] (24 h, 10 μM) was 110%; in series [2] (24 h, 100 μM), 102%; in series [2] (48 h, 10 μM), 91%; in series [2] (48 h, 100 μM), 94%.

On to `NCC(N)CCCCNC(=O)c1cc(O)c(O)c(O)c1` (stereo not drawn) [Compound 30b, N-(5,6-diaminohexyl)-3,4,5-trihydroxybenzamide], for which, in series [3], the “Cu^2+ chelating properties” value is “most active”. In addition, the “viability of the cells as a percentage of the untreated cells” value in series [2] (24 h, 10 μM) turned out to be 110%; in series [2] (24 h, 100 μM), 82%; in series [2] (48 h, 10 μM), 95%; in series [2] (48 h, 100 μM), 67%.

On to `NCC(N)CCCCNC(=O)CCn1cccc(O)c1=O` (stereo not drawn) [Compound 37b, N-(5,6-diaminohexyl)-3-(3-hydroxy-2-oxopyridin-1(2H)-yl)propanamide], for which, in series [1], the “disappearance of the free scavenger” value was “almost total disappearance of the free scavenger”. For the same compound, the “Cu^2+ chelating properties” value in series [3] is on record as “most active”. For the same compound, the “viability of the cells as a percentage of the untreated cells” value was determined as 138% in series [2] (24 h, 10 μM); 124% in series [2] (24 h, 100 μM); 115% in series [2] (48 h, 10 μM); 107% in series [2] (48 h, 100 μM).

These data come from US10464920B2, “Vicinal primary diamines associated with metal and/or free radical chelation motifs, and active against carbonyl and oxidative stress, and use thereof” (UNIVERSITE AMIENS PICARDIE JULES VERNE, priority 2015, dated 2019).
